A word on the IC50: it is the concentration needed to halve the response being measured.

Like-named read-outs stand apart in the source and are kept apart here. Bridge positions count the residues as written; N and C are the ends. Peptide text beside a SMILES is read from it.

Test [1] deals with T1, κ opioid receptors (Cavia porcellus, UniProt P41144).
T1 construct: from tissue; host or cells: whole guinea pig brain membranes
The test can be described thus: Radioligand binding, inhibition of [3H]U-69593 binding to guinea pig brain membrane.
Experimental: (§2) Samples were incubated for 1.0 h at 25° C. before filtration through glass fiber filter strips (GF/B, Whatman) pretreated with 0.1% polyethylenimine. Nonspecific binding (=20% of total binding) was defined as binding measured in the presence of 1.0 μM Dyn A1-13.

The target of test [2] is T2, δ opioid receptors (Rattus norvegicus, UniProt P33533).
T2 construct: membranes prepared from whole rat brain (less cerebellum); from tissue; host or cells: whole rat brain (less cerebellum) membranes
T2 sequence (P33533 whole entry): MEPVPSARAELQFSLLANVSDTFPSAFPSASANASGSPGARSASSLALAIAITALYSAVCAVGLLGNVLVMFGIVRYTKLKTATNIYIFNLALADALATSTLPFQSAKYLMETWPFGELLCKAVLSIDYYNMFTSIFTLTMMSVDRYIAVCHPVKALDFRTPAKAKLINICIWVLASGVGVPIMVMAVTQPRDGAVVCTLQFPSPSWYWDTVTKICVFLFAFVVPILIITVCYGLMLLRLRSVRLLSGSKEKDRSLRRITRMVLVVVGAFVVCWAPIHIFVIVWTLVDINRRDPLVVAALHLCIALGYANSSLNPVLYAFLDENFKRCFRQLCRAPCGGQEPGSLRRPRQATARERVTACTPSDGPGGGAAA
The test can be described thus: Radioligand binding, [3H]DPDPE, brain membranes. The note with it: rat brain homogenate, 1.0 nM radioligand.
Experimental: as §2

In test [3] the target is μ opioid receptors (Rattus norvegicus, UniProt P33535). Put plainly: biochemical.
μ opioid receptors, sequence (P33535 whole entry): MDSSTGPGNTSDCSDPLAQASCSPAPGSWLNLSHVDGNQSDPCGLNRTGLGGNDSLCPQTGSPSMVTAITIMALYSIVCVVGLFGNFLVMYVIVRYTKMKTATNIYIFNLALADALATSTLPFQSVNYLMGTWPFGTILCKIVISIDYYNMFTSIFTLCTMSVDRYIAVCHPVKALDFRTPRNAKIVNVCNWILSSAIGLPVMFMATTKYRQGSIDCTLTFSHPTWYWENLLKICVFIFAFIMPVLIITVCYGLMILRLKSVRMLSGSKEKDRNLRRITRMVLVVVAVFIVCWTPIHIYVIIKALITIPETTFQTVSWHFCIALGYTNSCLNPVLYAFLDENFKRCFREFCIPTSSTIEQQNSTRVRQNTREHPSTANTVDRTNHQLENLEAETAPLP
Test [4] has as its system guinea pig ileum (GPI) longitudinal muscle/myenteric plexus preparation. Put plainly: Guinea pig ileum (GPI) longitudinal muscle/myenteric plexus bioassay. Type of test: cell-based. As to the method:
The known guinea pig ileum (GPI) longitudinal muscle/myenteric plexus preparation was used for in vitro bioassays (Kosterlitz, H.W., Lydon, R.J., and Watt, A.J., (1970), Br. J. Pharmacol., 39, 398-413). The tissues were suspended under a final tension of 1 g in organ baths, bathed with Krebs buffer (NaCl 118 mM, KCl 4.7 mM, CaCl2 2.5 mM, KH2 PO4 1.19 mM, MgSO4 1.18 mM, NaHCO3 25 mM, and glucose 11.48 mM), maintained at 37° C. and aerated with 95% O2 /5% CO2. Electrical stimuli were 0.4 msec pulses of supramaximal voltage, at a rate 6/min. Isometric contractions were measured via strain gauge force transducers on chart recorders. The mouse vas deferens (MVD) preparation was also performed as described by Hughes et al. (Hughes, J., Kosterlitz, H.W., and Leslie, F.M., (1975), Br. J. Pharmacol., 53, 371-381). The Krebs buffer was made as above, but without magnesium and the tissues were suspended under a final tension of 500 mg. Pulse duration was 2 msec. Dose-response testing in all preparations was carried out in a cumulative fashion. The compounds were tested for intrinsic agonist activity in the two in vitro bioassays. […] Ke values were calculated according to the formula: […]
(§1) where [Ant] is the concentration of the antagonist, and DR is the dose ratio (i.e., IC50 after antagonism divided by the IC50 before antagonist activity was measured).

Test [5] concerns mouse vas deferens (MVD) preparation. Put plainly: Mouse vas deferens (MVD) bioassay. Type of test: cell-based. The protocol: The known guinea pig ileum (GPI) longitudinal muscle/myenteric plexus preparation was used for in vitro bioassays (Kosterlitz, H.W., Lydon, R.J., and Watt, A.J., (1970), Br. J. Pharmacol., 39, 398-413). The tissues were suspended under a final tension of 1 g in organ baths, bathed with Krebs buffer (NaCl 118 mM, KCl 4.7 mM, CaCl2 2.5 mM, KH2 PO4 1.19 mM, MgSO4 1.18 mM, NaHCO3 25 mM, and glucose 11.48 mM), maintained at 37° C. and aerated with 95% O2 /5% CO2. Electrical stimuli were 0.4 msec pulses of supramaximal voltage, at a rate 6/min. Isometric contractions were measured via strain gauge force transducers on chart recorders. The mouse vas deferens (MVD) preparation was also performed as described by Hughes et al. (Hughes, J., Kosterlitz, H.W., and Leslie, F.M., (1975), Br. J. Pharmacol., 53, 371-381). The Krebs buffer was made as above, but without magnesium and the tissues were suspended under a final tension of 500 mg. Pulse duration was 2 msec. Dose-response testing in all preparations was carried out in a cumulative fashion. The compounds were tested for intrinsic agonist activity in the two in vitro bioassays. Thus, concentrations showing intrinsic activity for each analog were tested in the presence of naloxone (1000 nM) to define opioid activity. To further define the opioid selectivity of the agonist effect, the δ selective antagonist ICI 174,864 (Cotton, R., Giles, M.G., Miller, L., Shaw, J.S., and Timms, D. (1984), Eur. J. Pharmacol., 97, 331-332) was utilized in the MVD, and the μ selective antagonists CTAP (Pelton, J.T., Kazmierski, W., Gulya, K., Yamamura, H.I., and Hruby, V.J. (1986), J. Med. Chem., 29, 2370-2375) or CTP (Pelton, J.T., Gulya, K., Hruby, V.J., Duckles, S., and Yamamura, H.I. (1985) Proc. Natl. Acad. Sci. U.S.A., 82, 236-239) were employed in the GPI, all at 1000 nM. Ke values were calculated according to the formula: […]
as §1

Test [6] has as its system kappa opioid receptor. The note with it: cited from earlier work.
The conditions of test [7]: administered i.c.v.; cited from earlier work.
For test [8] the following is noted: administered i.c.v.; cited from earlier work. This is another data set of the same source.
[9] abbreviates: selectivity, ratio of IC50 values.

T1 sequence (P41144 whole entry): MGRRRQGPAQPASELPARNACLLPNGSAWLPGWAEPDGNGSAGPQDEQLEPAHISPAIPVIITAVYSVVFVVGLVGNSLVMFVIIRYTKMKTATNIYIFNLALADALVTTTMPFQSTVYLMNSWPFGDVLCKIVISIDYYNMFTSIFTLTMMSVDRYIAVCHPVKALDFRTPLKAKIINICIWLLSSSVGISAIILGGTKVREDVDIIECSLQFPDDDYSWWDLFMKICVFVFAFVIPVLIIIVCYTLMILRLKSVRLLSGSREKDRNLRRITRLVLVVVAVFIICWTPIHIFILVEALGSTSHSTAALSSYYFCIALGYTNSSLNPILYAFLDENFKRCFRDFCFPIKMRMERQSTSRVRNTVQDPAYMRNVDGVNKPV

For the molecule `CC[C@H](C)[C@@H]1NC(=O)[C@H](CCCN=C(N)N)NC(=O)[C@H](CCCN=C(N)N)NC(=O)[C@@H](NC(=O)[C@H](Cc2ccccc2)NC(=O)CNC(=O)CNC(=O)[C@@H](N)Cc2ccc(O)cc2)CSSC[C@@H](C(N)=O)NC(=O)[C@@H]2CCCN2C(=O)[C@H](CCCN=C(N)N)NC1=O` [Compound 1] (H-YGGFCRRIRPC-NH2; disulfide 5-11), the IC50 in test [1] was determined as 0.39 ± 0.06 nM; in test [2], 18.6 ± 7.5 nM; in test [3], 2.3 ± 0.72 nM.

Regarding `C[C@H]1NC(=O)[C@H](CCCNC(=N)N)NC(=O)[C@H](CCCNC(=N)N)NC(=O)[C@@H](NC(=O)[C@H](Cc2ccccc2)NC(=O)CNC(=O)CNC(=O)[C@@H](N)Cc2ccc(O)cc2)CSSC[C@@H](C(N)=O)NC(=O)[C@@H]2CCCN2C(=O)[C@H](CCCNC(=N)N)NC1=O` [Compound 2], the figures for the IC50 in test [1], in test [2] and in test [3] were 0.28 ± 0.036 nM, 1.63 ± 0.53 nM and 0.27 ± 0.14 nM, respectively.

For the molecule `CC(C)C[C@@H]1NC(=O)[C@H](CCCCN)NC(=O)[C@@H]2CCCN2C(=O)[C@H](CCCN=C(N)N)NC(=O)[C@@H](NC(=O)[C@H](CCCN=C(N)N)NC(=O)[C@H](CCCN=C(N)N)NC(=O)[C@H](CC(C)C)NC(=O)[C@H](Cc2ccccc2)NC(=O)CNC(=O)CNC(=O)[C@@H](N)Cc2ccc(O)cc2)CSSC[C@@H](C(N)=O)NC1=O` [Compound 3], the figures for the IC50 in test [2] and in test [3] were 3.97 ± 0.96 nM and 0.98 ± 0.12 nM, respectively.

Regarding `CC(C)C[C@@H]1NC(=O)[C@H](CCCCN)NC(=O)[C@@H]2CCCN2C(=O)[C@H](CCCNC(=N)N)NC(=O)[C@H](NC(=O)[C@H](CCCNC(=N)N)NC(=O)[C@H](CCCNC(=N)N)NC(=O)[C@H](CC(C)C)NC(=O)[C@H](Cc2ccccc2)NC(=O)CNC(=O)CNC(=O)[C@@H](N)Cc2ccc(O)cc2)CSSC[C@@H](C(N)=O)NC1=O` [Compound 4], the IC50 amounted to 104 ± 1.86 nM in test [2] and 10.3 ± 3.9 nM in test [3].

Consider `CC(C)C[C@H](NC(=O)[C@H](Cc1ccccc1)NC(=O)CNC(=O)CNC(=O)[C@@H](N)Cc1ccc(O)cc1)C(=O)N[C@@H](CCCNC(=N)N)C(=O)N[C@@H](CCCNC(=N)N)C(=O)N[C@@H]1CSSC[C@H](C(N)=O)NC(=O)[C@H](CC(C)C)NC(=O)[C@H](CCCCN)NC(=O)[C@@H]2CCCN2C(=O)[C@H](CCCNC(=N)N)NC1=O` [Compound 5], for which, in test [1] (setting [9]), the δ/κ is on record as 130. Moreover, the μ/κ in test [1] (setting [9]) worked out at 3. Also, the IC50 in test [1] (κ, guinea pig brain homogenate, 1.0 nM radioligand, read-out: IC50 (nM) [3H]-U-69,593) was determined as 0.11 ± 0.009 nM; in test [4], 1.75 nM; in test [5], 19.5 nM. Further, the “Ke (nM) for: NLX” value turned out to be 233 nM in test [4] (naloxone 1000 nM) and 18.2 nM in test [5] (naloxone 1000 nM). Also, in test [5] (δ antagonist ICI 174,864 1000 nM), the “Ke (nM) for: ICI” value was found to be 1000 nM. The “Ke (nM) for: CTAP” value in test [5] (μ antagonist CTAP 1000 nM) came out at 1430 nM.

For the molecule `CC[C@H](C)[C@H](NC(=O)[C@H](CCCNC(=N)N)NC(=O)[C@H](CCCNC(=N)N)NC(=O)[C@H](CC(C)C)NC(=O)[C@H](Cc1ccccc1)NC(=O)CNC(=O)CNC(=O)[C@@H](N)Cc1ccccc1)C(=O)N[C@@H](CCCNC(=N)N)C(=O)N1CCC[C@@H]1C(=O)N[C@@H](CCCCN)C(N)=O` [Compound 6, [Phe^1, D-Pro^10]Dyn A1-11NH2], the IC50 turned out to be 2.4 ± 0.56 nM in test [1], 390 ± 52 nM in test [2] and 120 ± 22 nM in test [3].

With `CC(C)C[C@H](NC(=O)[C@H](Cc1ccccc1)NC(=O)CNC(=O)CNC(=O)[C@@H](N)Cc1ccc(Br)cc1)C(=O)N[C@@H](CCCNC(=N)N)C(=O)N[C@@H](CCCNC(=N)N)C(=O)N[C@H](C)C(=O)N[C@@H](CCCNC(=N)N)C(=O)N1CCC[C@H]1C(=O)N[C@@H](CCCCN)C(N)=O` [Compound 7, [p-BrPhe^1, D-Ala^8]Dyn A1-11NH2], the IC50 in test [1] turned out to be 1.7 ± 0.14 nM; in test [2], 1060 ± 40 nM; in test [3], 47 ± 5.1 nM.

Consider `CC[C@H](C)[C@H](NC(=O)[C@H](CCCN=C(N)N)NC(=O)[C@H](CCCN=C(N)N)NC(=O)[C@H](CC(C)C)NC(=O)[C@H](Cc1ccccc1)NC(=O)CNC(=O)CNC(=O)[C@@H](N)Cc1ccc(O)cc1)C(=O)N[C@@H](CCCN=C(N)N)C(=O)N1CCC[C@H]1C(=O)N[C@@H](CCCCN)C(=O)N[C@@H](CC(C)C)C(=O)N[C@@H](CCCCN)C(N)=O` [Dyn A1-13NH2, reference compound], for which the values for the IC50 in test [1], in test [2] and in test [3] were 0.109 ± 0.003 nM, 2.96 nM and 1.33 nM, respectively.

As for [D-pro^10 ]Dyn A1-11 -OH [DPDYN], the reported binding affinity result in test [6] (against the kappa ligand [3H]Bremazocine) is on record as “about 0.032 nM”. Moreover, the “κ vs. μ and κ vs δ selectivities” value in test [6] is on record as “high”. For the same molecule, the “activity against thermal stimulus” value in test [7] was “did not show any activity”. Besides, the “effect against chemical pain” value in test [8] was “dose-related effect”.
